Read-outs that look alike come from different tables or passages of the source.
Columns and labels:
Assay type in all cases: in vivo
Alternaria solani = test: Alternaria test (tomatoes)/preventive; conditions: Alternaria solani, 72 h, read-out: Efficacy in % found; for pest or weed control at 25 ppm: application rate 25 ppm a.i.; for pest or weed control at 100 ppm: application rate 100 ppm a.i.
Text: (§1) A synergistic effect of fungicides is always present when the fungicidal activity of the active compound combinations exceeds the total of the activities of the active compounds when applied individually. The expected activity for a given combination of two active compounds can be calculated as follows (cf. Colby, S. R., “Calculating Synergistic and Antagonistic Responses of Herbicide Combinations”, Weeds 1967, 15, 20-22):
(§2) If • X is the efficacy when active compound A is applied at an application rate of m ppm (or g/ha), • Y is the efficacy when active compound B is applied at an application rate of n ppm (or g/ha), • E is the efficacy when the active compounds A and B are applied at application rates of m and n ppm (or g/ha), respectively, and
Alternaria Test (Tomatoes)/Preventive • Solvent: 24.5 parts by weight of acetone • 24.5 parts by weight of dimethylacetamide • Emulsifier: 1 part by weight of alkylaryl polyglycol ether
(§3) To produce a suitable preparation of active compound, 1 part by weight of active compound is mixed with the stated amounts of solvent and emulsifier, and the concentrate is diluted with water to the desired concentration.
(§4) To test for preventive activity, young plants are sprayed with the preparation of active compound at the stated rate of application. After the spray coating has dried on, the plants are inoculated with an aqueous spore suspension of Alternaria solani. The plants are then placed in an incubation cabinet at approximately 20° C. and a relative atmospheric humidity of 100%.
The test is evaluated 3 days after the inoculation. 0% means an efficacy which corresponds to that of the untreated control while an efficacy of 100% means that no disease is observed.

Phytophthora infestans = test: whole plant or invertebrate; conditions: Phytophthora infestans, 72 h; for pest or weed control at 0.005 ppm: application rate 0.005 ppm a.i.; for pest or weed control at 0.01 ppm: application rate 0.01 ppm a.i.; for pest or weed control at 0.0025 ppm: application rate 0.0025 ppm a.i.
Sphaerotheca fuliginea = test: Sphaerotheca test (cucumbers)/preventive
Text: as §1, §2
Sphaerotheca Test (Cucumbers)/Preventive • Solvent: 24.5 parts by weight of acetone • 24.5 parts by weight of dimethylacetamide • Emulsifier: 1 part by weight of alkylaryl polyglycol ether
as §3
as §4, with “Sphaerotheca fuliginea.” for “Alternaria solani.”, “a greenhouse” for “an incubation cabinet”, “23°” for “20°”, “approximately 70%.” for “100%.”
The test is evaluated 7 days after the inoculation. 0% means an efficacy which corresponds to that of the untreated control, while an efficacy of 100% means that no disease is observed.

Venturia inaequalis = test: Venturia test (apples)/preventive; conditions: Venturia inaequalis, 240 h, read-out: Efficacy in % found; for pest or weed control at 50 ppm: application rate 50 ppm a.i.; for pest or weed control at 100 ppm: application rate 100 ppm a.i.
Text: as §1, §2
Venturia test (apples)/preventive • Solvent: 24.5 parts by weight of acetone • 24.5 parts by weight of dimethylacetamide • Emulsifier: 1 part by weight of alkylaryl polyglycol ether
as §3
as §4, with “conidia” for “spore”, “the causal agent of apple scab (Venturia inaequalis) and” for “Alternaria solani. The plants are”, “remain for 1 day” for “placed”
The plants are then placed in a greenhouse at approximately 21° C. and a relative atmospheric humidity of approximately 90%.
The test is evaluated 10 days after the inoculation. 0% means an efficacy which corresponds to that of the untreated control, while an efficacy of 100% means that no disease is observed.

[1] = read-out: Efficacy in % found, Table 3
[2] = read-out: Efficacy in % found, Table 4
[3] = read-out: Efficacy in % found, Table 5
[4] = read-out: Efficacy in % found, Table 6
[5] = Table 7, application rate 100 ppm a.i.

Row | Compound | pest or weed control at 25 ppm (Alternaria solani; Table 1) [%] | pest or weed control at 100 ppm (Alternaria solani; Table 2) [%] | pest or weed control at 0.005 ppm (Phytophthora infestans; [2]) [%] | pest or weed control at 0.01 ppm (Phytophthora infestans; [2]) [%] | pest or weed control at 0.0025 ppm (Phytophthora infestans; [3]) [%] | pest or weed control at 0.0025 ppm (Phytophthora infestans; [4]) [%] | Efficacy in % found (Sphaerotheca fuliginea; [5]) [%] | pest or weed control at 50 ppm (Venturia inaequalis; Table 10) [%] | pest or weed control at 100 ppm (Venturia inaequalis; Table 10) [%] | pest or weed control at 50 ppm (Venturia inaequalis; Table 11) [%] | pest or weed control at 100 ppm (Venturia inaequalis; Table 11) [%] | pest or weed control at 100 ppm (Venturia inaequalis; Table 12) [%] | pest or weed control at 100 ppm (Venturia inaequalis; Table 13) [%] | further results
1 | CS(=O)(=O)Oc1ccccc1C1CC(c2csc(C3CCN(C(=O)Cn4nc(C(F)F)cc4C(F)F)CC3)n2)=NO1 (stereo not shown) [(I-1), 2-{3-[2-(1-{[3,5-bis(difluoromethyl)-1H-pyrazol-1-yl]acetyl}piperidin-4-yl)-1,3-thiazol-4-yl]-4,5-dihydro-1,2-oxazol-5-yl}phenyl methanesulfonate] | 20 | 34 | 67 | 77 | 52 | 48 | 19 | 0 | 0 | 4 | 13 | 21 | 0 | pest or weed control at 0.005 ppm (Phytophthora infestans; [1]): 82%; Efficacy in % found (Sphaerotheca fuliginea; Table 8, application rate 100 ppm a.i.): 0%; Efficacy in % found (Sphaerotheca fuliginea; Table 9, application rate 100 ppm a.i.): 38%
2 | CS(=O)(=O)Oc1cccc(Cl)c1C1CC(c2csc(C3CCN(C(=O)Cn4nc(C(F)F)cc4C(F)F)CC3)n2)=NO1 (stereo not shown) [(I-3), 2-{3-[2-(1-{[3,5-bis(difluoromethyl)-1H-pyrazol-1-yl]acetyl}piperidin-4-yl)-1,3-thiazol-4-yl]-4,5-dihydro-1,2-oxazol-5-yl}-3-chlorophenyl methanesulfonate] | 0 | 36 | 5 | 28 | 59 | 79 | 43 | 0 | 0 | 0 | 15 | 0 | 0 | pest or weed control at 25 ppm (Alternaria solani; Table 2): 30%; pest or weed control at 0.0025 ppm (Phytophthora infestans; [1]): 65%; pest or weed control at 0.01 ppm (Phytophthora infestans; [3]): 87%; Efficacy in % found (Sphaerotheca fuliginea; Table 8, application rate 50 ppm a.i.): 19%; Efficacy in % found (Sphaerotheca fuliginea; Table 9, application rate 50 ppm a.i.): 29%

Source: patent US12102087B2 (priority 2012, dated 2024)
